Test results: patent US20260125400A1, “TYK2 DEGRADERS AND USES THEREOF” (Kymera Therapeutics, Inc., priority 2023, published 2026)
Where two headings read alike, the source gives them in different places.

Biological target: T1, TYK2 (Homo sapiens, UniProt P29597)
T1 construct: Degradation of TYK2 in cells was quantitatively measured using Meso Scale Discovery (MSD) technology; endogenous in cells; host or cells: OCI-LY10
Experiment: TYK2 MSD degradation in OCI-LY10 cells
Format: cell-based
Conditions: 4 to 24 hours incubation; for DC50: read-out: TYK2 MSD OCI-LY10 Rel-DC50
Procedure, shortened: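 OCI-LY10 cells were treated with 9-dose 1:3 series (top 1 to 10 μM final) for 4 to 24 hours at 37° C. Lysate TYK2 quantified by MSD sandwich immunoassay; DC50 and Dmax from four-parameter inhibitor vs. response fit.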

[1] = TYK2 degradation in OCI-LY10 cells

T1 sequence (P29597 whole entry): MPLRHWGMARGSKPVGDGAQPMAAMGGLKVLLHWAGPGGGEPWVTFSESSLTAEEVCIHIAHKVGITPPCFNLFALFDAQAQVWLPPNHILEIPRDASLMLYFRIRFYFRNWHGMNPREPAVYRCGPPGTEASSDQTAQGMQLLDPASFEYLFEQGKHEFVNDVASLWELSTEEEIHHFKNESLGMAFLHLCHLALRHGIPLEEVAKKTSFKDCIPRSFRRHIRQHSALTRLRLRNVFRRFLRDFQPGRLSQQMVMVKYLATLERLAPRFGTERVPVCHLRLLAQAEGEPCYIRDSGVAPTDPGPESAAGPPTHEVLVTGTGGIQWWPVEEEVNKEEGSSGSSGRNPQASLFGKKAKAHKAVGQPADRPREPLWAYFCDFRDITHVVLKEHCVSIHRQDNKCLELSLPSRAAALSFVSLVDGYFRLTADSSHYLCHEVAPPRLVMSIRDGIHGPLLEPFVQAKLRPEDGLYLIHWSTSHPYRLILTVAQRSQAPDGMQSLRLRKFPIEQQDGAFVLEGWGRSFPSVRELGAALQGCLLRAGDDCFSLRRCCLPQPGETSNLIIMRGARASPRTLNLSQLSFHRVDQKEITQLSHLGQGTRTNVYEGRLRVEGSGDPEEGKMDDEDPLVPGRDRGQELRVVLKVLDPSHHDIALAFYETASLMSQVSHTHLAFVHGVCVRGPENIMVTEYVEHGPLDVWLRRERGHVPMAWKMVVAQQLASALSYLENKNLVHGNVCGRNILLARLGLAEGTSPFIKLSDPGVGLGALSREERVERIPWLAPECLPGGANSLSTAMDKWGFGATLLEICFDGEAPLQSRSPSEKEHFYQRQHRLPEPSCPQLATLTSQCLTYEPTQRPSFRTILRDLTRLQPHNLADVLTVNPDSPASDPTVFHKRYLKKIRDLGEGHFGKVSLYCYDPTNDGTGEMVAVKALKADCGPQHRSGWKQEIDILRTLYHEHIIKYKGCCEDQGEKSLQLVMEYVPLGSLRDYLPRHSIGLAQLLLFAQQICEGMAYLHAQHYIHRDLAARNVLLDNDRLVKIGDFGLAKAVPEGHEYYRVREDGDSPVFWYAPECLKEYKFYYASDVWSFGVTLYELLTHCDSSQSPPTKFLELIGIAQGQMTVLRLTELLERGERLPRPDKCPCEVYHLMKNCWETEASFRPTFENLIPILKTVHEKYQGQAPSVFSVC

| SMILES | TYK2 MSD OCI-LY10 Dmax % [1] | DC50 [1] | TYK2 MSD OCI-LY10 Dmax % (OCI-LY10 cells) | DC50 (OCI-LY10 cells) |
| --- | --- | --- | --- | --- |
| CNc1cc(N2CCc3c(CN4CC[C@H](N5CCC6(CCN(C(=O)c7cc(Cl)c(Cl)c(N8CCC(=O)NC8=O)c7)CC6)CC5)C(F)(F)C4)cccc32)nn2c(C(=O)N[C@@H]3CC[C@H]3OC)cnc12 [I-1146] | A (A (>90%)) | < 1 nM | – | – |
| CNc1cc(N2CCc3c(CN4CCC(N5CCC6(CCN(C(=O)c7cc(N8CCC(=O)NC8=O)c(C)cn7)CC6)CC5)C(F)(F)C4)cccc32)nn2c(C(=O)N[C@@H]3C[C@@H]3F)cnc12 (some centres unmarked) [I-1022] | B (B (90 to >75%)) | < 1 nM | – | – |
| CNc1cc(N2CCc3c(-c4ccc(CN5CC6(CCC(COc7ccc(Cl)c(C8CCC(=O)NC8=O)c7)CC6)C5)cn4)cccc32)nn2c(C(=O)N[C@@H]3C[C@@H]3F)cnc12 (some centres unmarked) [I-462] | – | – | D (D (<50%)) | 10 to 100 nM |
| CNc1cc(N2CCc3c(-c4cc(N5CCC6(CCN(C(=O)c7ccc(Cl)c(N8CCC(=O)NC8=O)c7)CC6)CC5)ccn4)cccc32)nn2c(C(=O)N[C@@H]3C[C@@H]3F)cnc12 [I-248] | C (C (75 to 50%)) | < 10 nM | – | – |
| CNc1cc(N2CCc3c(-c4ccc(CC5CN(C6CCN(C7CCN(c8ccc9c(c8)n(C)c(=O)n9C8CCC(=O)NC8=O)CC7)CC6(F)F)C5)cn4)cccc32)nn2c(C(=O)N[C@@H]3C[C@@H]3F)cnc12 (some centres unmarked) [I-359] | B (B (90 to >75%)) | < 1 nM | – | – |
| CNc1cc(N2CCc3c(-c4ccc(CN5CCC(N6CCC(Oc7ccc(Cl)c(N8CCC(=O)NC8=O)c7)CC6)C(F)(F)C5)cn4)cccc32)nn2c(C(=O)N[C@@H]3C[C@@H]3F)cnc12 (some centres unmarked) [I-245] | D (D (<50%)) | > 100 nM | – | – |
| CNc1cc(N2CCc3c(-c4ccc(CN5CCC(N6CC(N7CCN(c8cccc9c8n(C)c(=O)n9C8CCC(=O)NC8=O)CC7)C6)C(F)(F)C5)cn4)cccc32)nn2c(C(=O)N[C@@H]3C[C@@H]3F)cnc12 (some centres unmarked) [I-277] | B (B (90 to >75%)) | < 1 nM | – | – |
| CNc1cc(N2CCc3c(-c4ccc(CC5CCC6(CC5)CCN(C(=O)c5cc(C)c(Cl)c(N7CCC(=O)NC7=O)c5)CC6)cn4)cccc32)nn2c(C(=O)N[C@@H]3CC[C@H]3OC)cnc12 [I-1107] | A (A (>90%)) | < 10 nM | – | – |
| CNc1cc(N2CCc3c(-c4ccc(CN5CC6(C5)CN(C(=O)c5ccc(Cl)c(N7CCC(=O)NC7=O)c5)C6)cn4)cccc32)nn2c(C(=O)NC3CC3F)cnc12 (centres unmarked) [I-295] | D (D (<50%)) | < 10 nM | – | – |
| CNc1cc(N2CCc3c(-c4ccc(CN5CCC(N6CCN(c7ccc8c(c7)n(C)c(=O)n8C7CCC(=O)NC7=O)CC6)C(F)(F)C5)cn4)cc(F)cc32)nn2c(C(=O)NC3CC3)cnc12 (centres unmarked) [I-61] | B (B (90 to >75%)) | < 10 nM | – | – |
| CNC(=O)c1cnc(Nc2ccc(C(=O)NCCOCCOCCOCCOCCN(C(=O)C3CCCN(c4cncc5ccccc45)C3)c3ccc(=O)n(CC(=O)O)c3)cn2)cc1Nc1cccc(-c2ncccn2)c1OC (centres unmarked) [I-920] | D (D (<50%)) | > 100 nM | – | – |
| CNc1cc(N2CCc3c(-c4ccc(N5CC6(CCN(C(=O)c7ccc(N8CCC(=O)NC8=O)c(Cl)c7)CC6)C5)cn4)cccc32)nn2c(C(=O)N[C@@H]3C[C@@H]3F)cnc12 [I-892] | B (B (90 to >75%)) | < 10 nM | – | – |
| CNc1cc(N2CCc3c(-c4ccc(CN5CCC(N6CCC(C7CCN(c8ccc9c(c8)n(C)c(=O)n9C8CCC(=O)NC8=O)CC7)CC6)C(F)(F)C5)cn4)cccc32)nn2c(C(=O)N[C@@H]3C[C@@H]3F)cnc12 (some centres unmarked) [I-360] | B (B (90 to >75%)) | < 10 nM | – | – |
| CNc1cc(N2CCc3c(CN4CCC(N5CCC6(CCN(C(=O)c7cc(F)c(C)c(N8CCC(=O)NC8=O)c7)CC6)CC5)C(F)(F)C4)cccc32)nn2c(C(=O)N[C@@H]3CC[C@H]3OC)cnc12 (some centres unmarked) [I-1081] | A (A (>90%)) | < 1 nM | – | – |
| COC1(c2cc(C)cc(-c3cn(C4CCN(CC5CCN(c6ccc(NC7CCC(=O)NC7=O)c(F)c6)CC5)CC4)c4cnc(NC(C)=O)cc34)n2)CCOC1 (centres unmarked) [I-842] | A (A (>90%)) | < 1 nM | – | – |
| CNc1cc(N2CCc3c(CN4CCC(N5CCC6(CCN(C(=O)c7cc(Cl)c(OC)c(N8CCC(=O)NC8=O)c7)CC6)CC5)C(F)(F)C4)cccc32)nn2c(C(=O)N[C@@H]3C[C@@H]3F)cnc12 (some centres unmarked) [I-764] | – | – | B (B (90 to >75%)) | < 10 nM |
| CNc1cc(N2CCc3c(-c4ccc(CN5CCC6(CCN(Cc7ccc(Cl)c(N8CCC(=O)NC8=O)c7)CC6)C(F)(F)C5)cn4)cccc32)nn2c(C(=O)NC3CC3)cnc12 [I-363] | D (D (<50%)) | > 100 nM | – | – |
| CNc1cc(N2CCc3c(-c4ccc(CN5CC6(CCN(C(=O)c7cc(N8CCC(=O)NC8=O)c(C)cn7)CC6)C5)cn4)cccc32)nn2c(C(=O)N[C@@H]3C[C@@H]3F)cnc12 [I-782] | – | – | A (A (>90%)) | < 1 nM |
| CNc1cc(N2CCc3c(C#CCN4CCC(N5CCC(C6CCN(c7ccc8c(c7)n(C)c(=O)n8C7CCC(=O)NC7=O)CC6)CC5)C(F)(F)C4)cccc32)nn2c(C(=O)N[C@@H]3C[C@@H]3F)cnc12 (some centres unmarked) [I-467] | – | – | B (B (90 to >75%)) | < 10 nM |

| SMILES | TYK2 MSD OCI-LY10 Dmax % [1] | DC50 [1] | TYK2 MSD OCI-LY10 Dmax % (OCI-LY10 cells) | DC50 (OCI-LY10 cells) |
| --- | --- | --- | --- | --- |
| CNc1cc(N2CCc3c(-c4ncc([C@H](C)N5CC6(CCN(C(=O)c7cc(C)c(Cl)c(N8CCC(=O)NC8=O)c7)CC6(F)F)C5)cc4F)cccc32)nn2c(C(=O)N[C@@H]3CC[C@H]3OC)cnc12 [I-1143] | A (A (>90%)) | < 1 nM | – | – |
| CNc1cc(N2CCc3c(CN4CCC(CN5CCC(N(C)c6ccc(Cl)c(N7CCC(=O)NC7=O)c6)CC5)C(F)(F)C4)cccc32)nn2c(C(=O)N[C@@H]3C[C@@H]3F)cnc12 (some centres unmarked) [I-751] | – | – | B (B (90 to >75%)) | < 10 nM |
| CNc1cc(N2CCc3c(-c4cc(CN5CCN(c6noc7cc(N8CCC(=O)NC8=O)ccc67)CC5)ccn4)cccc32)nn2c(C(=O)N[C@@H]3C[C@@H]3F)cnc12 [I-723] | – | – | D (D (<50%)) | > 100 nM |
| CNc1cc(N2CCc3c(-c4ccc(N5CCN(C(=O)c6ccc(Cl)c(N7CCC(=O)NC7=O)c6)CC5)cn4)cccc32)nn2c(C(=O)N[C@@H]3C[C@@H]3F)cnc12 [I-90] | D (D (<50%)) | < 10 nM | – | – |
| CNc1cc(N2CCc3c(-c4ccc(CN5CCC6(CCN(C(=O)c7ccc(C(F)F)c(N8CCC(=O)NC8=O)c7)CC6)C(F)(F)C5)cn4)cccc32)nn2c(C(=O)N[C@@H]3C[C@@H]3F)cnc12 [I-980] | C (C (75 to 50%)) | < 10 nM | – | – |
| CNc1cc(N2CCc3c(-c4ccc(CC5(F)CC6(CCN(C(=O)c7cc(N8CCC(=O)NC8=O)c(C)cc7F)CC6)C5)cn4)cccc32)nn2c(C(=O)N[C@@H]3CC[C@H]3OC)cnc12 [I-1121] | A (A (>90%)) | < 1 nM | – | – |
| CNc1cc(N2CCc3c(CN4CCC(N5CCC(CN6CCN(C(=O)c7ccc(Cl)c(N8CCC(=O)NC8=O)c7)CC6)CC5)C(F)(F)C4)cccc32)nn2c(C(=O)N[C@@H]3C[C@@H]3F)cnc12 (some centres unmarked) [I-716] | – | – | B (B (90 to >75%)) | < 1 nM |
| CNc1cc(N2CC3(CCN(CC4CCN(c5cccc6c5n(C)c(=O)n6C5CCC(=O)NC5=O)CC4)CC3)c3ccccc32)nn2c(C(=O)NC3CC3)cnc12 (centres unmarked) [I-25] | D (D (<50%)) | > 100 nM | – | – |
| CNc1cc(N2CCc3c(N4CCN(CCC5CC6(CCN(C(=O)c7ccc(Cl)c(N8CCC(=O)NC8=O)c7)CC6)C5)CC4)cccc32)nn2c(C(=O)N[C@@H]3C[C@@H]3F)cnc12 [I-887] | B (B (90 to >75%)) | < 10 nM | – | – |
| CNc1cc(N2CCc3c(C4CCCN(CC5CN(c6ccc7c(c6)n(C)c(=O)n7C6CCC(=O)NC6=O)C5)C4)cccc32)nn2c(C(=O)NC3CC3)cnc12 (centres unmarked) [I-45] | C (C (75 to 50%)) | < 1 nM | – | – |
| CNc1cc(N2CCc3c(-c4ncc(CN5CC6(CCN(C(=O)c7cc(C)c(C)c(N8CCC(=O)NC8=O)c7)CC6(F)F)C5)cc4F)cccc32)nn2c(C(=O)NC3CCC3OC)cnc12 (centres unmarked) [I-993] | A (A (>90%)) | < 1 nM | – | – |
| CNc1cc(N2CCc3c(-c4ccc(CN5CCC6(CCN(C(=O)c7ccc(C(F)(F)F)c(N8CCC(=O)NC8=O)c7)CC6)C(F)(F)C5)cn4)cccc32)nn2c(C(=O)N[C@@H]3C[C@@H]3F)cnc12 [I-978] | D (D (<50%)) | < 10 nM | – | – |
| CNc1cc(N2CCc3c(-c4ccc(CN5CCC(N6CCC7(CC6)CN(c6cccc8c6n(C)c(=O)n8C6CCC(=O)NC6=O)C7)C(F)(F)C5)cn4)cccc32)nn2c(C(=O)N[C@@H]3C[C@@H]3F)cnc12 (some centres unmarked) [I-280] | B (B (90 to >75%)) | < 10 nM | – | – |
| CNc1cc(N2CCc3c(-c4ncc(CN5CC6(CCN(C(=O)c7cc(N8CCC(=O)NC8=O)c(C)cc7F)CC6(F)F)C5)cc4F)cccc32)nn2c(C(=O)NC3CCC3OC)cnc12 (centres unmarked) [I-1007] | A (A (>90%)) | < 1 nM | – | – |
| CNc1cc(N2CCc3c(CN4CCC(N5CCC(N6CCN(c7ccc8c(c7)n(C)c(=O)n8C7CCC(=O)NC7=O)CC6)CC5)C(F)(F)C4)cccc32)nn2c(C(=O)NC3CC3)cnc12 (centres unmarked) [I-62] | B (B (90 to >75%)) | < 1 nM | – | – |
| CNc1cc(N2CCc3c(-c4ccc(CN5CCC6(CCN(C(=O)c7cc(C)c(Cl)c(N8CCC(=O)NC8=O)c7)CC6)C(F)(F)C5)cn4)cccc32)nn2c(C(=O)NC3CCCC3(F)F)cnc12 (centres unmarked) [I-998] | C (C (75 to 50%)) | 10 to 100 nM | – | – |
| CNc1cc(N2CCc3c(-c4ccc(N5CC6(CCN(Cc7ccc(C8CCC(=O)NC8=O)c(Cl)c7)CC6)C5)cn4)cccc32)nn2c(C(=O)NC3CC3F)cnc12 (mixture of isomers) [I-445] | – | – | B (B (90 to >75%)) | < 10 nM |
| CNc1cc(N2CCc3c(-c4ccc(CN5CCC(Oc6ccc(C7CCC(=O)NC7=O)c(Cl)c6)CC5)cn4)cccc32)nn2c(C(=O)N[C@@H]3C[C@@H]3F)cnc12 (some centres unmarked) [I-387] | B (B (90 to >75%)) | 10 to 100 nM | – | – |
